Assays:
[1] = molecular target: T1, Aβ-heme peroxidase (Homo sapiens, UniProt P05067); test: Inhibition of Aβ-heme peroxidase activity (TMB assay or HPLC); inhibitor screen; type: biochemical; settings: for identified as inhibitor of Aβ-heme peroxidase activity in library screen: TMB assay; for peroxidase activity of Aβ-heme: TMB assay or HPLC
T1 construct: Amyloid-β (Aβ) peptide (American Peptide, Sunnyvale, Calif.) is dissolved in distilled deionized water; purchased American Peptide, Sunnyvale, Calif

[2] = system: Tg2576 APPSw transgenic mouse; settings: curcumin-treated Tg2576 APPSw mouse; Lim et al 2001; cited from earlier work
[3] = system: Tg2576 APPSw transgenic mouse; settings: chronic dose of curcumin, APPSw mice; Lim 2001; cited from earlier work
[4] = molecular target: Aβ(1-42) (Homo sapiens, UniProt P05067); settings: reference 13; cited from earlier work
[5] = molecular target: Aβ(1-40) (Homo sapiens, UniProt P05067); settings: reference 13; cited from earlier work
[6] = system: human neuroblastoma (SHSY5Y) cells; test: Effect of Aβ on heme synthesis in SHSY5Y cells; type: cell-based
Description: (§1) The effect of Aβ on heme synthesis was used to test the biological effect of the Aβ and heme interaction. We expected an increase in heme synthesis due to depletion of regulatory heme if the binding between heme and Aβ occurs in the cell. […] A 40% increase in heme synthesis was seen after 2 h incubation with 0.1 μM Aβ. A 4-fold and 13-fold increase in heme synthesis was seen after 1 h of incubation with 1 and 10 μM Aβ, respectively. A 2.5-fold and 18-fold increase in heme synthesis was seen after 2 h of incubation with 1 and 10 μM Aβ, respectively. An increase in the uptake of cofactors of heme biosynthesis is necessary to support heme synthesis. […] A 55% increase in iron was seen after 2 h of incubation with 0.1 μM Aβ. […] A 2-fold and 8-fold increase in iron uptake was seen after 2 h of incubation with 1 and 10 μM Aβ, respectively. The exposure of SHSY5Y cells to Aβ was not toxic as measured by trypan blue exclusion tests and compared with controls.

[7] = system: SHSY5Y cells; type: cell-based, human
Description: as §1

[8] = system: human neuroblastoma (SHSY5Y) cells; test: Effect of Aβ on intracellular iron / iron uptake in SHSY5Y cells; type: cell-based

T1 sequence (P05067 672-711 limits assumed): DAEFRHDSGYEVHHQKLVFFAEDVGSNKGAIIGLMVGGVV
Aβ(1-40), sequence (P05067 672-711 limits assumed): as above
Aβ(1-42), sequence (P05067 672-713 limits assumed): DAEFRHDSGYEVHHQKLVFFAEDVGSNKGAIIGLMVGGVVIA

For Cc1cc(N(C)C)cc2[s+]c3cc(N(C)C)cc(C)c3nc12 [1-9-dimethyl methylene blue], the “identified as inhibitor of Aβ-heme peroxidase activity in library screen” value (“identified as inhibitor” for short) [1] was “inhibitors”.

With O=C(O)CCNO [N-(2-carboxyethyl)hydroxylamine] the “identified as inhibitor” value [1] was “inhibitors”.

With O=[N+]([O-])CCCNO [N-(3-nitropropyl)hydroxylamine] the “identified as inhibitor” value [1] was “inhibitors”.

With OCCCCNO [N-(4-hydroxybutyl)hydroxylamine] the “identified as inhibitor” value [1] was “inhibitors”.

With CC(=O)NO [N-(acetyl)hydroxylamine] the “identified as inhibitor” value [1] was “inhibitors”.

For O=C(CNO)Cc1ccccc1 [N-(benzylcarbonyl)methylhydroxylamine], the “identified as inhibitor” value [1] was “inhibitors”.

For ONCc1ccccc1 [N-benzylhydroxylamine (NBHA), N-benzylhydroxylamine], the “peroxidase activity of Aβ-heme” value ([1]; 100 μM N-benzylhydroxylamine) was “significantly inhibited”.

In the case of ONC1CCCCC1 [N-cyclohexylhydroxylamine], the “identified as inhibitor” value [1] is reported as “inhibitors”.

With CC(C)NO [N-isopropylhydroxylamine] the “identified as inhibitor” value [1] was “inhibitors”.

For CC(C)(C)NO [N-tert-butylhydroxylamine], the “identified as inhibitor” value [1] was “inhibitors”.

With CN(C)c1ccc2nc3ccc(N)cc3[s+]c2c1.[Cl-] [azure A] the “identified as inhibitor” value [1] was “inhibitors”.

In the case of CNc1ccc2nc3ccc(N)cc3[s+]c2c1.[Cl-] [azure C], the “identified as inhibitor” value [1] is reported as “inhibitors”.

For COc1cc(/C=C/C(=O)CC(=O)/C=C/c2ccc(O)c(OC)c2)ccc1O [curcumin], the “peroxidase activity of Aβ-heme” value ([1]; 1 μM curcumin) is given as “significantly inhibited”, the oxidative damage [2] is given as “reduced oxidative damage” and the “insoluble Aβ” value [3] is given as “significantly reduces”. For the same compound, the “soluble Aβ” value [3] was “significantly reduces”.

In the case of C=CC1=C(C)c2cc3[n-]c(cc4[n-]c(cc5nc(cc1n2)C(C)=C5C=C)c(C)c4CCC(=O)O)c(CCC(=O)O)c3C.[Fe+2] [heme], the “aggregation of Aβ(1-42)” value [4] is listed as “prevented aggregation” and the “aggregation of Aβ(1-40)” value [5] is listed as “prevented aggregation”.

In the case of CCNc1cc2[s+]c3cc(NCC)c(C)cc3nc2cc1C.[Cl-] [new methylene blue], the “identified as inhibitor” value [1] is reported as “inhibitors”.

For Cc1cc2nc3ccc(N(C)C)cc3[s+]c2cc1N.[Cl-] [toluidine blue], the “identified as inhibitor” value [1] was “inhibitors”.

In the case of “Aβ: Amyloid-β (Aβ) peptide (American Peptide, Sunnyvale, Calif.)”, the “increase in heme synthesis” value ([6]; 0.1 μM Aβ, 2 h incubation) is reported as 40%, the “increase in heme synthesis” value ([6]; 1 μM Aβ, 1 h incubation) is reported as 4 fold and the “increase in heme synthesis” value ([6]; 1 μM Aβ, 2 h incubation) is reported as 2.5 fold. The “increase in heme synthesis” value ([6]; 10 μM Aβ, 1 h incubation) was 13 fold, the “increase in heme synthesis” value ([6]; 10 μM Aβ, 2 h incubation) was 18 fold and the synthesis of heme ([6]; Aβ 0.1, 1 and 10 μM) was “significantly increased”. For the same compound, the “toxicity by trypan blue exclusion” value [7] was “not toxic”, the increase in iron ([8]; 0.1 μM Aβ, 2 h incubation) was 55% and the “increase in iron uptake” value ([8]; 1 μM Aβ, 1 h incubation) was 4 fold. For the same compound, the “increase in iron uptake” value ([8]; 10 μM Aβ, 1 h incubation) was 12.5 fold, the “increase in iron uptake” value ([8]; 10 μM Aβ, 2 h incubation) was 8 fold and the intracellular iron ([8]; Aβ 0.1, 1 and 10 μM) was “significantly increased”.

With azure B the “identified as inhibitor” value [1] was “inhibitors”.

In the case of coproporphyrin I, the “identified as inhibitor” value [1] is reported as “inhibitors”.

In the case of coproporphyrin III, the “identified as inhibitor” value [1] is reported as “inhibitors”.

With uroporphyrin I the “identified as inhibitor” value [1] was “inhibitors”.

In the case of uroporphyrin III, the “identified as inhibitor” value [1] is reported as “inhibitors”.

— US7285396B1, “Aβ-heme peroxidase” (Children's Hospital & Research Center at Oakland, priority 2006, dated 2007)
